# Where “and” joins values, the source holds several entries; their conditions need not be identical. Equal entries are not always repeated.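 Assay format: 96-well plates, 48-hour exposure. GI50: concentration for 50% inhibition of growth. TGI denotes the concentration required for complete inhibition of growth.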
# Experiments:
# Test in all cases: growth of human tumour cells (NCI), 48 h
# [1] = test system: T-47D breast
# [2] = test system: SW-620 colon
# [3] = test system: SK-MEL-2 melanoma
# [4] = test system: HCT-15 colon
# [5] = test system: 786-0 renal
# [6] = test system: DU-145 prostate
# [7] = test system: BT-549 breast
# [8] = test system: NCI-H522 lung
# [9] = test system: SK-MEL-5 melanoma
# [10] = test system: NCI-H23 lung
Compound,GI50 [1],TGI [1],GI50 [2],TGI [2],GI50 [3],TGI [3],GI50 [4],TGI [4],GI50 [5],TGI [5],GI50 [6],TGI [6],GI50 [7],TGI [7],GI50 [8],TGI [8],GI50 [9],TGI [9],GI50 [10],TGI [10]
CN1CCN(c2nc(NCCCNc3ccnc4cc(Cl)ccc34)c3ccccc3n2)CC1,2.39 µM,6.73 µM,3.23 µM,12.8 µM,3.18 µM,9.09 µM,5.33 µM,18.8 µM,3.58 µM,12.9 µM,6.11 µM,18.4 µM,4.4 µM,16.7 µM,3.24 µM,7.7 µM,1.78 µM,3.18 µM,10.6 µM,24 µM
Cc1[nH]nc2c1N=C(c1ccccc1F)c1cc(C(N)=O)ccc1N2,2.89 µM,> 15.8 µM,2.34 µM,> 25 µM,2.45 µM,7.14 µM,4.69 µM,> 25 µM,2.82 µM,> 25 µM,6.71 µM,> 25 µM,2.9 µM,12.8 µM,2.19 µM,> 19.6 µM,3.11 µM,9.03 µM,6.85 µM,> 25 µM
C/C=C/[C@H]1O[C@@H]2C(=C[C@H]1O)C(=O)O[C@H]2C,7.34 µM,25.5 µM,3.19 µM,14.2 µM,37.8 µM,> 100 µM,15.7 µM,34.7 µM,13.8 µM,28.7 µM,5.76 µM,21.4 µM,10.5 µM,22.5 µM,5.02 µM,> 42.9 µM,9.89 µM,23.3 µM,16.4 µM,44.2 µM
CC(C)n1nc(-c2ccc3oc(N)nc3c2)c2c(N)ncnc21,< 0.01 µM,0.016 µM and 0.0155 µM,0.037 µM and 0.0379 µM,21.1 µM and 12.6 µM,0.0194 µM and 0.0157 µM,0.581 µM and 0.113 µM,0.0126 µM and 0.0164 µM,11.3 µM and > 35.2 µM,0.0146 µM and 0.0266 µM,0.4 µM and 1.41 µM,0.0203 µM and 0.0208 µM,11.9 µM and 6.63 µM,< 0.01 µM,–,< 0.01 µM,15.3 µM and 1.76 µM,0.0171 µM and < 0.0114 µM,0.143 µM and 0.0865 µM,0.0268 µM and 0.0176 µM,8.16 µM and 2.39 µM
NCCOc1ccccc1/C=C1\c2ccccc2-c2ccc([N+](=O)[O-])cc21,1.66 µM,3.44 µM,1.09 µM,2.43 µM,1.8 µM,3.34 µM,1.2 µM,2.53 µM,1.7 µM,3.23 µM,1.03 µM,2.21 µM,1.5 µM,2.84 µM,1.49 µM,3.05 µM,1.8 µM,3.22 µM,1.7 µM,3.23 µM
C[C@]12CC[C@H]3[C@@H](C[C@@H]4SC(Nc5ccccc5)=N[C@@]45CC(O)CC[C@]35C)[C@@H]1CCC2O (some centres undefined),2.41 µM,7.59 µM,2.27 µM,5.36 µM,2.51 µM,5.64 µM,1.6 µM,5.15 µM,1.22 µM,3.3 µM,1.7 µM,3.62 µM,1.38 µM,4.31 µM,1.9 µM,4.5 µM,1.82 µM,3.41 µM,2.03 µM,5.04 µM
Oc1cccc(/C=N/Nc2nnc(N/N=C/c3cccc(O)c3)c3ccccc23)c1,–,61.8 µM,–,56.8 µM,–,83.6 µM,–,39 µM,–,38.5 µM,–,66 µM,–,44.8 µM,–,53.1 µM,–,8.86 µM,–,48.6 µM
CCCCNC(=O)Oc1ccc(/C(=C(/C)Cc2ccc(OC)cc2)c2ccc(OCCN3CCCC3)cc2)cc1,1.39 µM,4.37 µM,1.78 µM,3.36 µM,2.13 µM,4.23 µM,1.5 µM,3.13 µM,1.51 µM,2.91 µM,2.29 µM,5.44 µM,1.52 µM,2.98 µM,2.02 µM,4.05 µM,1.66 µM,3.17 µM,2.26 µM,5.67 µM
Cc1[nH]c(-c2nc3ccccc3[nH]2)c(C)c1C(=O)NC(C)C1CCCCC1 (centres undefined),12.4 µM,39.2 µM,4.95 µM,18.3 µM,10.1 µM,25.5 µM,4.77 µM,19.6 µM,14.8 µM,32.2 µM,14.6 µM,28.2 µM,10.7 µM,23.2 µM,13.2 µM,44 µM,10.3 µM,22.3 µM,12.6 µM,31.5 µM
C/C(=N\N=C(\[Se])N(C)C)c1ccccn1,–,32.3 µM,–,15.2 µM,–,12.9 µM,–,15.9 µM,–,18.3 µM,–,18 µM,–,21.4 µM,–,0.975 µM,–,1.75 µM,–,11 µM
CCc1cc2ncc(CN3CCN(c4ccc(C(=O)NC)nc4)CC3)cc2[nH]c1=O,28.2 µM,> 100 µM,> 100 µM,> 100 µM,> 100 µM,> 100 µM,65.4 µM,> 100 µM,79.6 µM,> 100 µM,> 100 µM,> 100 µM,25.9 µM,> 100 µM,27.1 µM,> 100 µM,30.4 µM,> 100 µM,53.5 µM,> 100 µM
COc1cc2ncnc(Nc3ccc4c(cnn4Cc4ccccc4)c3)c2cc1OC,2.16 µM,> 25 µM,> 25 µM,> 25 µM,> 25 µM,> 25 µM,> 17.4 µM,> 25 µM,16.7 µM,> 25 µM,> 25 µM,> 25 µM,16.5 µM,> 25 µM,0.724 µM,> 25 µM,> 17.5 µM,> 25 µM,> 25 µM,> 25 µM
COc1ccc(/C=C2\CN(Cc3cn(CCNc4ccnc5cc(Cl)ccc45)nn3)C/C(=C\c3ccc(OC)c(OC)c3)C2=O)cc1OC,5.05 µM,> 100 µM,2.32 µM,6.15 µM,3.88 µM,26.6 µM,6.87 µM,38.7 µM,3.35 µM,12.4 µM,3.48 µM,11 µM,2.16 µM,4.84 µM,2.24 µM,6.38 µM,1.72 µM,3.75 µM,7.45 µM,37.8 µM

# Reference: PubChem BioAssay (NCI)
